Publication PMC6713164, “Inhibitory effects of flavonoids isolated from Sophora flavescens on indoleamine 2,3-dioxygenase 1 activity” (Journal of Enzyme Inhibition and Medicinal Chemistry, 2019)

Assays:
[1] = target: T1, IDO1 (Homo sapiens, UniProt P14902); test: IDO1 enzyme assay; format: biochemical; set-up: The full-length of IDO1 gene was amplified by PCR; His tag; made in house; host or cells: Escherichia coli T7 strain, vector pET28a; conditions: recombinant human IDO1, L-Trp 200 µM, 37 °C, 1 h, mean ± SD; for IC50: read-out: His-hIDO1 IC50
Excerpt: The Escherihia coli DH5α and T7 strain were used for gene cloning and protein production, respectively. The human IDO1 clone was provided from Korea Human Gene Bank, Medical Genomics Research Center, KRIBB, Korea. The full-length of IDO1 gene was amplified by PCR using pfu DNA polymerase (Thermo Fisher, , Waltham, MA). The PCR product from IDO1 mRNA was cloned into expression vector pET28a to obtain pET28a-IDO1 and confirmed using DNA sequencing (Cosmogenetech, Seoul, Korea). […] The expressed IDO1 protein was purified using Ni-NTA agarose (Qiagen, Valencia, CA) at 4 °C. The eluted IDO1 protein was dialysed using storage buffer (20 mM Tris-HCl buffer (pH 8.0 and 200 mM NaCl)). The purified IDO1 protein was analysed with SDS-PAGE.
The enzyme assays were performed with previous descripted in Takikawa et al.[23]. Briefly, 200 µL of the reaction mixture contained potassium phosphate buffer (50 mM, pH 6.5), ascorbic acid (20 mM), methylene blue (10 µM), catalase (10 mM), purified recombinant human IDO1 enzyme (5 µg/mL) and L-Trp (200 µM). The metabolites were serially diluted in dimethyl sulfoxide (DMSO, 0.5%, v/v) and transferred to a 96-well plates. […] The plates were centrifuged at 4000 rpm for 15 min to remove debris. Next, the supernatant (125 µL) from each well was transferred to a 96-well plates. p-dimethylaminobenzaldehyde (125 µL; 2%, v/v) in acetic acid was then added to each well, and the absorbance value of the plate was read at a wavelength of 480 nm using a SpectraMAX-190 ELISA reader (Molecular Devices, Sunnyvale, CA).

[2] = target: T1, IDO1; test: Cell-based IDO1 assay (Kyn production) in IFN-γ-treated HeLa cells; set-up: to induce endogenous IDO1 expression; endogenous in cells; host or cells: HeLa cells stimulated with IFN-γ; conditions: IFN-γ-treated (50 ng/mL, 24 h) HeLa cells, compound 6 h; mean ± SD; read-out: IC50 against cell-based IDO1 (Kyn production)
Procedure: HeLa (Human cervical cancer cells) cells were purchased from the American Type Culture Collection (ATCC) and cultured in DMEM supplemented with fetal bovine serum (FBS, 10%) and penicillin–streptomycin (1%).
HeLa cells were seeded into 48-well plates (2 × 10^4 cells/well). Next, the cells were stimulated with human recombinant IFN-γ (50 ng/mL, R&D Systems, Minneapolis, MN) in complete DMEM for 24 h. After replacing the medium with DMEM containing IFN-γ, the cells were treated with the flavonoids (1–6) or DMSO (0.5%, v/v) for 6 h, and then the supernatant (125 µL) from each well was transferred to a 96-well plate. The cell-based assay was similarly performed to the IDO1 enzyme assay.

[3] = target: T1, IDO1; test: IDO1 enzyme kinetics assay (Lineweaver–Burk, Dixon plots); format: biochemical; conditions: L-Trp 0–50 µM, flavonoids 0–45 µM, read-out: κi
Procedure: The kinetics assay was performed by adding purified protein to the reaction mixture (200 µL) which contained a final concentration of potassium phosphate buffer (50 mM, pH 6.5), ascorbic acid (20 mM), catalase (10 mM), methylene blue (10 µM), and distilled water up to 200 µL. Various concentrations of L-Trp as substrate of IDO1 were added to the reaction mixture with four different concentrations of flavonoids (0–45 µM). After incubation at 37 °C for 1 h, the dissociation constant (κi) of the three flavonoids were determined by measuring the activity at five concentrations of L-Trp (0 to 50 µM).

[4] = target: T1, IDO1; test: Thermal shift assay (SYPRO-Orange); format: binding; conditions: 30 µM compound, without L-Trp; read-out: increase of mean melting temperature (ΔTm) compared to DMSO-treated group
Procedure: The thermal stability of proteins was measured by SYPRO-Orange (Thermo Fisher Scientific, Waltham, MA) as previously described in Soderhole et al.[24]. Briefly, IDO 1 enzyme (5 µg/mL) was mixed with 30 µM of kushenol F (KF, 4), (2S)-2'-methoxy kurarinone (MK, 5), and kushenol E (KE, 6), or serially diluted KE (6) in 20 µL reaction buffer containing potassium phosphate buffer (50 mM) and sodium chloride (100 mM), and then incubated for 1 h. The measurement of protein denaturation via an increase in temperature was determined using real-time PCR device (CFX96 Real Time System, BioRad, Hercules, CA) using the FRET channel. In the presence of IDO1 enzyme, SYPRO-Orange has a maximum excitation near 490 nm and a maximum emission near 600 nm. The heating rate and fluorescence reading were 0.5 °C/10 s depending on the temperature range 25–95 °C.

[5] = target: T2, His-IDO1 (WT) (Homo sapiens, UniProt P14902); test: Surface plasmon resonance (SPR) assay, His-IDO1 (WT); format: binding
T2 construct: The full-length of IDO1 gene was amplified by PCR; His tag; made in house; host or cells: Escherichia coli T7 strain, vector pET28a
Procedure: (§1) The SPR assay was performed with 10 mM stock solution and five serially diluted concentrations of KE (6) in PBS and 5% DMSO at 25 °C using a Reichert instrument (SR7500DC System, USA) using a sensor chip CM5 (GE Healthcare, Chicago, IL) (Woojung BSC Inc, Seoul, Korea). Amine coupling of His-IDO1 (WT and P314A) was performed with 0.2 M 1-ethyl-3-(3-dimethylaminopropyl)-carbodiimide, 0.05 M N-hydroxysuccinimide, and 1 M ethanolamine (ph 8.5, GE Healthcare, Chicago, IL). The results were analysed using Scrubber software (version 2.0, BioLogic Software, Mundelein, IL).

[6] = target: T3, His-IDO1 (P314A) (Homo sapiens, UniProt P14902, P314A); test: Surface plasmon resonance (SPR) assay, His-IDO1 (P314A); format: binding
T3 construct: The full-length of IDO1 gene was amplified by PCR; His tag; made in house
Procedure: as §1
(§2) Point mutations were introduced using the Muta-Direct^TM mutagenesis kit (iNtRON, Seuol, Korea). Oligonucleotides for generation of Pro182 (P182A), Phe185 (F185A), double mutation (P182A and F185A), and Pro 314 (P314A) to alanine mutants (mutated residues are underlined) were as follows: • For P182A: 5′-[…]-3′, 5′-[…]-3′. • For F185A: 5′-[…]-3′, 5′-[…]-3′. • For double mutation (P182A and F185A): 5′-[…]-3′, 5′-[…]-3′. • For P314A: 5′- […]-3′, 5′- […]-3′.

[7] = target: T3, His-IDO1 (P314A); test: Mutagenesis assay: IDO1 enzyme assay with P314A mutant; format: biochemical; conditions: mutant form of His-IDO1 (P314A)
Procedure: The enzyme assays were performed with previous descripted in Takikawa et al.[23]. […]. The metabolites were serially diluted in dimethyl sulfoxide (DMSO, 0.5%, v/v) and transferred to a 96-well plates. The reaction was conducted at 37 °C for 1 h and stopped by adding 40 µL of trichloroacetic acid (30%); the solution was then heated at 65 °C for 15 min. The plates were centrifuged at 4000 rpm for 15 min to remove debris. Next, the supernatant (125 µL) from each well was transferred to a 96-well plates. p-dimethylaminobenzaldehyde (125 µL; 2%, v/v) in acetic acid was then added to each well, and the absorbance value of the plate was read at a wavelength of 480 nm using a SpectraMAX-190 ELISA reader (Molecular Devices, Sunnyvale, CA).
as §2

[8] = standard error in parentheses, read-out: Ka

T3 sequence (P14902 whole entry P314A): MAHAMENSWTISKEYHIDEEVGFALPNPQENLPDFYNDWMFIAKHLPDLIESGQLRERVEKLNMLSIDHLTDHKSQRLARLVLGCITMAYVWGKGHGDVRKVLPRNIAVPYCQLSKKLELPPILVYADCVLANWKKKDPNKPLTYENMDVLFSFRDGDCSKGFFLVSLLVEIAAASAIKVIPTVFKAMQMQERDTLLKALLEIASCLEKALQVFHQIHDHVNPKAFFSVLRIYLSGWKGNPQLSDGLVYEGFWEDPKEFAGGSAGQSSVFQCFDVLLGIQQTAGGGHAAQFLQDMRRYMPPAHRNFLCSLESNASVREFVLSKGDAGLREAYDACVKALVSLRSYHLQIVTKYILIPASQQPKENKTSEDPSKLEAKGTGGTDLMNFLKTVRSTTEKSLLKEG
T1 sequence (P14902 whole entry): as the sequence (P14902 whole entry P314A) above, with A314P counted along it
T2 sequence (P14902 whole entry): as the sequence (P14902 whole entry P314A) above, with A314P counted along it

Compound | IC50 [2] [µM] | IC50 [1] [µM] | Ki [3] [µM] | ΔTm at 30 µM [4] [°C] | also measured
O=C1CC(c2ccc(O)cc2O)Oc2cc(O)cc(O)c21 (stereo not drawn) [Steppogenin, steppogenin, reference compound] |  |  |  |  | His-hIDO1 IC50 [1]: does not affect IDO1 inhibitory activity
C=C(C)[C@H](CC=C(C)C)Cc1c(O)cc(OC)c2c1O[C@H](c1ccc(O)cc1OC)CC2=O [(2S)-2′-Methoxy kurarinone (MK, 5), (2S)-2'-methoxy kurarinone] | 23.8 ± 1.6 | 31.4 ± 1.3 | 13.7 ± 0.03 | 0.4 | 
CC(C)=CCc1c(O)c(CC=C(C)C)c2c(c1O)C(=O)C[C@@H](c1ccc(O)cc1O)O2 [Kushenol E (KE, 6), kushenol E] | 4.3 ± 0.3 | 7.7 ± 6.2 | 9.5 ± 0.6 | 5.7 | Kd ([5]; 25 °C, PBS 5% DMSO): 6.5 ± 0.1 µM; kon [5, 8]: 136 M⁻¹ s⁻¹; Kd ([6]; 25 °C, PBS 5% DMSO): 8.9 ± 0.2 µM; kon [6, 8]: 120 M⁻¹ s⁻¹; IC50 [7]: 29.8 ± 1.8 µM
C=C(C)[C@H](CC=C(C)C)Cc1c(O)cc(OC)c2c1O[C@H](c1ccc(O)cc1O)CC2=O [(−)-Kurarinone (3), (−)-kurarinone] | 74.9 ± 4.9 | 23.4 ± 1.3 |  |  | 

Continued, in another order:

IC50 [2] [µM] | IC50 [1] [µM] | Ki [3] [µM] | ΔTm at 30 µM [4] [°C] | Compound | also measured
83.6 ± 10.8 | 19.3 ± 1.1 |  |  | CC(C)=CCc1c(O)cc(O)c2c1OC(c1ccc(O)cc1)CC2=O (stereo not drawn) [Sophoraflavanone B (2), sophoraflavanone B] | 
42.2 ± 3.5 | 23.5 ± 2.2 |  |  | CC(C)=CCc1c(O)cc(O)c2c(=O)c(O)c(-c3ccc(O)cc3)oc12 [Noranhydroicaritin (1), noranhydroicaritin] | 
28.3 ± 0.3 | 25.4 ± 4.4 | 20.2 ± 3.1 | 1.5 | C=C(C)[C@H](CC=C(C)C)Cc1c(O)cc(O)c2c1O[C@H](c1ccc(O)cc1O)CC2=O [Kushenol F (KF, 4), kushenol F] | 
